Assay results published in patent US9475815B2, “Substituted benzothienyl-pyrrolotriazines and uses thereof” (Bayer Intellectual Property GmbH, priority 2012, dated 2016).
Counter-ions that a name gives are not always drawn. Like-named read-outs stand apart in the source and are kept apart here.

Assays:
human mTOR = human mTOR (Homo sapiens (Human), UniProt P42345); experiment: mTOR kinase assay (TR-FRET, for comparative purposes); type: biochemical; details: for inhibition at 1 µM: read-out: mTOR % inhibition @ 1 μM, 1 μM test compound, 40 μM ATP, mean values
human mTOR, sequence (P42345 1360-2549): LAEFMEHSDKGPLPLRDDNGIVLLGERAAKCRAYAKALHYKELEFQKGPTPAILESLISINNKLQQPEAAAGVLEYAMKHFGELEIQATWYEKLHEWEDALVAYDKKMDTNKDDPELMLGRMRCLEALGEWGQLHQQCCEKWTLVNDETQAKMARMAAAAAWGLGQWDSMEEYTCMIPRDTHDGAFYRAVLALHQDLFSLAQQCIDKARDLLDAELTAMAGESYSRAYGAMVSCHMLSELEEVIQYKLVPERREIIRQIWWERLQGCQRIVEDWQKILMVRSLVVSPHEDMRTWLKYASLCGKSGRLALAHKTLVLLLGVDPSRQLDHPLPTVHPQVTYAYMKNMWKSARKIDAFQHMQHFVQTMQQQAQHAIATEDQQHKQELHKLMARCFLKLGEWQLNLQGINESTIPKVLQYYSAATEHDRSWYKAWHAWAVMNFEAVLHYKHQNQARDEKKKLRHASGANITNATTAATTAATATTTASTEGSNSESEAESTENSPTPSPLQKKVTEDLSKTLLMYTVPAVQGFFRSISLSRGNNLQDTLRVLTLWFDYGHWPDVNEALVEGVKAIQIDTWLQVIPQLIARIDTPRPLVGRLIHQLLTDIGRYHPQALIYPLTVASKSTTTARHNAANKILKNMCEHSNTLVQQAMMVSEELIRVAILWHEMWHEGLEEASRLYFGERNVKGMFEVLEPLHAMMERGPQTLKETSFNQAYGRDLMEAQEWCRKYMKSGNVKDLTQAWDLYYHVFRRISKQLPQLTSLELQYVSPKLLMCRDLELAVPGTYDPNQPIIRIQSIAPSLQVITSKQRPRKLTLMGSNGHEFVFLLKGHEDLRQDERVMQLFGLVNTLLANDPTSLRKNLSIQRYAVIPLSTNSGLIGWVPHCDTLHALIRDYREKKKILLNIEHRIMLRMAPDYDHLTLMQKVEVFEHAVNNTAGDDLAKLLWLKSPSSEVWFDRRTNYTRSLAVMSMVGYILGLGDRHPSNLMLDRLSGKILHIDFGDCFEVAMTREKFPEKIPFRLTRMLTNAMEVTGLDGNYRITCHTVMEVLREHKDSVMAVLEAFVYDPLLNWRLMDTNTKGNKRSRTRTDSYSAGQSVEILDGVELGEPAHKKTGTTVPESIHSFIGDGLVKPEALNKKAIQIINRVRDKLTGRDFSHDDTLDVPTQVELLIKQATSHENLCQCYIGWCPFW
Experimental: mTOR inhibitory activity of the compounds of the present invention was quantified employing the TR-FRET based mTOR assay as described in the following paragraphs:
Test compounds were dissolved in DMSO to generate 10 mM stock solutions. These solutions were first 10-fold diluted by 100% DMSO to get 1 mM solutions in 100% DMSO, then 100-fold diluted by 50% DMSO to get 10 μM solutions in 50% DMSO.
(final concentration in the 10 μl assay volume=1 nM) in FRET buffer.
For this, the fluorescence emissions at 495 nm and 520 nm after excitation at 340 nm was measured in an Envision 2104 multilabel reader (Perkin-Elmer).

[1] = tested on: Human umbilical vein endothelial cells (HUVEC); experiment: Inhibition of growth factor-mediated cell proliferation (hFGF-2); type: cell-based; details: 72 h exposure, hFGF-2 stimulated, from averaged pIC50 values
Experimental: Human umbilical vein endothelial cells (HUVEC) were obtained from Cellsystems (FC-0003) and grown in Vasculife VEGF complete medium (Cellsystems, LL-1020) containing 2% fetal bovine serum (FBS) at 37° C. and 5% CO2. The cells were used for proliferation assays up to passage 7.
The HUVEC cells were harvested using accutase (PAA, L11-007) and seeded in columns 2 to 12 of 96-well plates (Falcon MICROTEST tissue culture plate 96-well flat bottom, BD 353075, or μCLEAR-PLATE, black, 96-well, Greiner Bio-One, No. 655090) at a cell density of 2500 cells/well in 100 μl Vasculife VEGF complete medium with column 1 remaining empty as blank. Cells were allowed to incubate at 37° C. and 5% CO2 for at least 6 h. Then, the cells were washed once with PBS and starved overnight in Vasculife basal medium (Cellsystems, LM-0002) containing heparin, ascorbate and L-glutamine (components of the Vasculife Life Factors Kit, Cellsystems, LL-1020) as well as 0.2% FBS.
After about 18 h, the starving medium was discarded, and the cells were exposed for 72 h to 9 consecutive log or half-log concentrations of test compound in the range of 10 pM to 30 μM and to 5, 10 or 20 ng/ml hFGF-2 (recombinant human FGF basic, R&D Systems, 233-FB) in 100 μl starving medium. 10 mM stock solutions of test compounds in DMSO were diluted to 200× final concentration in DMSO resulting in a final DMSO concentration of 0.5% in all wells. Controls consisted of cells grown in starving medium only and of cells grown in hFGF-2 containing starving medium with 0.5% DMSO. To determine cell proliferation, 5 μl Alamar Blue solution (Biosource, DAL1100) was added to each well (1:20 dilution), and the cells were allowed to incubate for further 4 h at 37° C. and 5% CO2 before measuring fluorescence (ex. 535 nm, em. 595 nm) with a Spectrafluor Plus Tecan plate reader (XFLUOR4 version 4.20). In some experiments, an ATP Determination Kit (BIAFFIN GmbH, LBR-T100) was used according to the manufacturer's instructions. In each experiment, samples were assayed in triplicate, and the standard deviations were determined GraphPad Prism 5 software was used to analyze the data and to obtain IC50 values. All test compounds were assayed 2 to 10 times in independent experiments and similar results were obtained.

human FGFR-1 = human FGFR-1 (Homo sapiens, UniProt P11362); experiment: FGFR-1 high ATP kinase assay (TR-FRET)
human FGFR-1, sequence (P11362 22-822 limits assumed): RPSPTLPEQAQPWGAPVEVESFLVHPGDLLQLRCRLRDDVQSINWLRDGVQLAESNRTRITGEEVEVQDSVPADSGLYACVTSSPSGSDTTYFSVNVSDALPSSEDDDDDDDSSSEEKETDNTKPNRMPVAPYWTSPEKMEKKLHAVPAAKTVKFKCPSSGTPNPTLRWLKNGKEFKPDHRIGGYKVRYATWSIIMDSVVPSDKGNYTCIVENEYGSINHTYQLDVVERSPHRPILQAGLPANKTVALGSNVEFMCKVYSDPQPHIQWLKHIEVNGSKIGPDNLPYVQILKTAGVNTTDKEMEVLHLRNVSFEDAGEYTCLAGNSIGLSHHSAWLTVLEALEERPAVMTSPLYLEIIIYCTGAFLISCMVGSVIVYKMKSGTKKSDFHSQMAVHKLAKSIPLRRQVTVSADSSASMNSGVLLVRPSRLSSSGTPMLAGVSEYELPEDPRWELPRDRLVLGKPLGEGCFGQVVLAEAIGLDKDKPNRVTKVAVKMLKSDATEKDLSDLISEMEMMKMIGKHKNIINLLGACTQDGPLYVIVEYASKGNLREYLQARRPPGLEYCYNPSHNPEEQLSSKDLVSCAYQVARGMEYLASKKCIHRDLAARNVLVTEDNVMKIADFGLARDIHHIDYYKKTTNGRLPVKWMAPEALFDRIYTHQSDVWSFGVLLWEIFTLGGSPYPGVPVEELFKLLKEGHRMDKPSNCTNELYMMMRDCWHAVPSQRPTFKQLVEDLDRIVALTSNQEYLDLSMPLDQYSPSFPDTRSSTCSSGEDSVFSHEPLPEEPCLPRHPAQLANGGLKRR

human FGFR-3 = human FGFR-3 (Homo sapiens (Human), UniProt P22607); experiment: FGFR-3 kinase assay (TR-FRET); type: biochemical; details: 10 μM ATP, 15 min pre-incubation with enzyme
human FGFR-3, sequence (P22607 397-806): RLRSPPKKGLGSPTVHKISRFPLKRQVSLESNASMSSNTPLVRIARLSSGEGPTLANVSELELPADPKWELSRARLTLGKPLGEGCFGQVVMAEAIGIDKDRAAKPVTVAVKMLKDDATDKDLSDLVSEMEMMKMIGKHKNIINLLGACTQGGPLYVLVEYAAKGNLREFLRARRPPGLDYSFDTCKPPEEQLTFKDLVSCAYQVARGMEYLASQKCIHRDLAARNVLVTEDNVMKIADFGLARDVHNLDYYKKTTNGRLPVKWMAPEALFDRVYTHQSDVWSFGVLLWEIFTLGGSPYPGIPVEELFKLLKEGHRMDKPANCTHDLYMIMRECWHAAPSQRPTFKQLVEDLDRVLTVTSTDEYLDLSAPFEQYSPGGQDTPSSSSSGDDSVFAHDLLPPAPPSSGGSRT

Structure (SMILES)	inhibition at 1 µM (human mTOR)	IC50 ([1]; Homo sapiens, HUVEC, 72 h)	IC50 (human FGFR-1)	IC50 (human FGFR-3)	IC50 ([1]; trihydrochloride hydrate)	mTOR % inhibition @ 1 μM (human mTOR; 1 μM test compound, 40 μM ATP, mean values)	IC50 [1]	IC50 (human FGFR-1; read-out: FGFR-1 (high ATP) IC50, 2 mM ATP, 15 min pre-incubation with enzyme)
COc1cc(C)cc2cc(-c3cc(CN4CCNC(C(N)=O)C4)n4ncnc(N)c34)sc12 (racemic) [Example 7, rac-4-{[4-Amino-5-(7-methoxy-5-methyl-1-benzothiophen-2-yl)pyrrolo[2,1-f][1,2,4]triazin-7-yl]-methyl}piperazine-2-carboxamide trihydrochloride]	43.7%	44 nM	7.8 nM					
COc1cc(C)cc2cc(-c3cc(C(=O)NC4CCNC4=O)n4ncnc(N)c34)sc12 (racemic) [Example 98, rac-4-Amino-5-(7-methoxy-5-methyl-1-benzothiophen-2-yl)-N-(2-oxopyrrolidin-3-yl)pyrrolo-[2,1-f][1,2,4]triazine-7-carboxamide hydrochloride]	24.6%	48 nM	9 nM	13.1 nM				
COc1cc(C)cc2cc(-c3cc(CN4CCNCC4)n4ncnc(N)c34)sc12 [Example 1, 5-(7-Methoxy-5-methyl-1-benzothiophen-2-yl)-7-(piperazin-1-ylmethyl)pyrrolo[2,1-f][1,2,4]-triazin-4-amine trihydrochloride hydrate]	17.6%		9.9 nM		36 nM			
COc1cc(C)cc2cc(-c3cc(CN4CCNCC4)n4ncnc(N)c34)sc12 [Example 2, 5-(7-Methoxy-5-methyl-1-benzothiophen-2-yl)-7-(piperazin-1-ylmethyl)pyrrolo[2,1-f][1,2,4]-triazin-4-amine]						22.8%	127 nM	20.1 nM
COc1cc(C)cc2cc(-c3cc(CN4CC[C@](C)(N)C4)n4ncnc(N)c34)sc12 [Example 5, 7-{[(3S)-3-Amino-3-methylpyrrolidin-1-yl]methyl}-5-(7-methoxy-5-methyl-1-benzothiophen-2-yl)pyrrolo[2,1-f][1,2,4]triazin-4-amine trihydrochloride]	18.8%	48 nM	1.1 nM	7.4 nM				
COc1cc(C)cc2cc(-c3cc(CN[C@@H]4CCNC4=O)n4ncnc(N)c34)sc12 [Example 6, (3R)-3-({[4-Amino-5-(7-methoxy-5-methyl-1-benzothiophen-2-yl)pyrrolo[2,1-f][1,2,4]triazin-7-yl]methyl}amino)pyrrolidin-2-one dihydrochloride]	33.5%	22 nM	20.1 nM	21.7 nM				
COc1cc(C)cc2cc(-c3cc(CN4CCNC(=O)C4)n4ncnc(N)c34)sc12 [Example 8, 4-{[4-Amino-5-(7-methoxy-5-methyl-1-benzothiophen-2-yl)pyrrolo[2,1-f][1,2,4]triazin-7-yl]-methyl}piperazin-2-one dihydrochloride]	45.9%	370 nM	29 nM					
COc1cc(C)cc2cc(-c3cc(CN4CC[C@H](N)C4)n4ncnc(N)c34)sc12 [Example 9, 7-{[(3S)-3-Aminopyrrolidin-1-yl]methyl}-5-(7-methoxy-5-methyl-1-benzothiophen-2-yl)pyrrolo[2,1-f][1,2,4]triazin-4-amine]	24.2%	145 nM	4.7 nM	7.4 nM				
COc1cc(C)cc2cc(-c3cc(CN4CCOCC4)n4ncnc(N)c34)sc12 [Example 10, 5-(7-Methoxy-5-methyl-1-benzothiophen-2-yl)-7-(morpholin-4-ylmethyl)pyrrolo[2,1-f][1,2,4]-triazin-4-amine]	28.1%	21 nM	94.9 nM	77.7 nM				
COc1cc(C)cc2cc(-c3cc(CN[C@H]4CCNC4=O)n4ncnc(N)c34)sc12 [Example 14]	30.6%	32 nM	43.6 nM	33.4 nM				
COc1cc(C)cc2cc(-c3cc(CN4CC[C@H](N(C)C)C4)n4ncnc(N)c34)sc12 [Example 15]	25.2%	180 nM	11.1 nM	23 nM				
CCN[C@H]1CCN(Cc2cc(-c3cc4cc(C)cc(OC)c4s3)c3c(N)ncnn23)C1 [Example 16]	26.7%	80 nM	15.6 nM	15.5 nM				
COc1cc(C)cc2cc(-c3cc(CN4CCNC(C(=O)N(C)C)C4)n4ncnc(N)c34)sc12 (stereo not drawn) [Example 17]	34.3%	150 nM	27.3 nM	36.9 nM				
COc1cc(C)cc2cc(-c3cc(CNCC(N)=O)n4ncnc(N)c34)sc12 [Example 18]	39.1%	155 nM	26.4 nM	7.8 nM				
CCN(CC)C1CCN(Cc2cc(-c3cc4cc(C)cc(OC)c4s3)c3c(N)ncnn23)C1 (stereo not drawn) [Example 19]	25.9%	277 nM	14.7 nM	27.2 nM				
COc1cc(C)cc2cc(-c3cc(CN4CCNC(=O)CC4)n4ncnc(N)c34)sc12 [Example 20]	35.6%	110 nM	54.7 nM	24.8 nM				
COc1cc(C)cc2cc(-c3cc(CN4CCC(NCC(C)O)C4)n4ncnc(N)c34)sc12 (stereo not drawn) [Example 22]	14%	105 nM	9.3 nM	41.8 nM				
CNC1CCN(Cc2cc(-c3cc4cc(C)cc(OC)c4s3)c3c(N)ncnn23)C1 (stereo not drawn) [Example 41]	25.9%	49 nM	7.3 nM					
COc1cc(C)cc2cc(-c3cc(CN4CCC(N(C)C)C4)n4ncnc(N)c34)sc12 (stereo not drawn) [Example 42]	36.3%	130 nM	13.4 nM					
COc1cc(C)cc2cc(-c3cc(CN4CCNC(C)(C)C4)n4ncnc(N)c34)sc12 [Example 45]	25.9%	217 nM	18.1 nM					
COc1cc(C)cc2cc(-c3cc(CN4CCC[C@H](N)C4)n4ncnc(N)c34)sc12 [Example 56]	32.1%	169 nM	17.5 nM	22.6 nM				
COc1cc(C)cc2cc(-c3cc(CN4CCCC(N(C)C)C4)n4ncnc(N)c34)sc12 (stereo not drawn) [Example 86]	33%	37 nM	4.6 nM	9.6 nM				
COc1cc(C)cc2cc(-c3cc(CN4CCN(C(=O)CO)CC4)n4ncnc(N)c34)sc12 [Example 96, 1-(4-{[4-Amino-5-(7-methoxy-5-methyl-1-benzothiophen-2-yl)pyrrolo[2,1-f][1,2,4]triazin-7-yl]-methyl}piperazin-1-yl)-2-hydroxyethanone]	37.9%	72 nM	12.6 nM	11.9 nM				
COc1cc(C)cc2cc(-c3cc(C(=O)N4CCNCC4)n4ncnc(N)c34)sc12 [Example 99, [4-Amino-5-(7-methoxy-5-methyl-1-benzothiophen-2-yl)pyrrolo[2,1-f][1,2,4]triazin-7-yl]-(piperazin-1-yl)methanone dihydrochloride]	9.9%	270 nM	90.4 nM	66.6 nM				
COc1cc(C)cc2cc(-c3cc(C(=O)N4CCC[C@](C)(N)C4)n4ncnc(N)c34)sc12 [Example 105]	17.1%	137 nM	20.4 nM	25.7 nM				
COc1cc(C)cc2cc(-c3cc(Cn4ccnc4C#N)n4ncnc(N)c34)sc12 [Example 122]	35.7%		71.8 nM	65.6 nM				
COc1cc(C)cc2cc(-c3cc(Cn4cc(C)nc4C)n4ncnc(N)c34)sc12 [Example 123]	47.8%		28.3 nM	58 nM				
